Earlier results in article PMC6916687 (Drug Design, Development and Therapy, 2019).

Tests used:
QGY-7703 cells = conditions: read-out: IC50 for QGY-7703 cells
MDA-MB-231 cells = conditions: read-out: IC50 for MDA-MB-231 cells

Row | SMILES | IC50 (QGY-7703 cells) [µM] | IC50 (MDA-MB-231 cells) [µM]
1 | O=c1c2ccccc2oc2cc(-c3ccccc3)ccc12 [3-phenylxanthone] | 6.27 | –
2 | Cc1ccc2c(=O)c3cccc(CC(=O)O)c3oc2c1C [DMXAA, 5,6-dimethylxanthone-4-acetic acid] | – | 48.4
